PubChem BioAssay (NCI)
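Where inhibition never reached the appropriate level, the endpoint shown equals the highest concentration tested. Otherwise, values were interpolated linearly from a five-concentration, 48-hour dose response in 96-well plates. Here, GI50 denotes the concentration required for 50% inhibition of growth. TGI: total growth inhibition.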

Key:
Experiment in all cases: NCI-60 cell line screen, 48 h
786-0 renal = tested on: 786-0 renal
A498 renal = tested on: A498 renal
A549 NSCLC = tested on: A549 NSCLC
ACHN renal = tested on: ACHN renal
BT-549 breast = tested on: BT-549 breast
CAKI-1 renal = tested on: CAKI-1 renal
CCRF-CEM leukemia = tested on: CCRF-CEM leukemia
COLO 205 colon = tested on: COLO 205 colon
DU-145 prostate = tested on: DU-145 prostate
EKVX NSCLC = tested on: EKVX NSCLC
HCT-116 colon = tested on: HCT-116 colon
HCT-15 colon = tested on: HCT-15 colon
HL-60(TB) leukemia = tested on: HL-60(TB) leukemia
HOP-62 NSCLC = tested on: HOP-62 NSCLC
HOP-92 NSCLC = tested on: HOP-92 NSCLC
HS 578T breast = tested on: HS 578T breast
HT29 colon = tested on: HT29 colon
IGROV1 ovarian = tested on: IGROV1 ovarian
K-562 leukemia = tested on: K-562 leukemia
KM12 colon = tested on: KM12 colon
LOX IMVI melanoma = tested on: LOX IMVI melanoma
M14 melanoma = tested on: M14 melanoma
MALME-3M melanoma = tested on: MALME-3M melanoma
MCF7 breast = tested on: MCF7 breast
MDA-MB-231 breast = tested on: MDA-MB-231 breast
MDA-MB-435 = tested on: MDA-MB-435
MOLT-4 leukemia = tested on: MOLT-4 leukemia
NCI-H226 lung = tested on: NCI-H226 lung
NCI-H23 lung = tested on: NCI-H23 lung
NCI-H460 lung = tested on: NCI-H460 lung
NCI/ADR-RES ovarian = tested on: NCI/ADR-RES ovarian
OVCAR-3 ovarian = tested on: OVCAR-3 ovarian
OVCAR-4 ovarian = tested on: OVCAR-4 ovarian
OVCAR-5 ovarian = tested on: OVCAR-5 ovarian
OVCAR-8 ovarian = tested on: OVCAR-8 ovarian
PC-3 prostate = tested on: PC-3 prostate
RPMI-8226 leukemia = tested on: RPMI-8226 leukemia
RXF 393 renal = tested on: RXF 393 renal
SF-268 CNS = tested on: SF-268 CNS
SF-295 CNS = tested on: SF-295 CNS
SF-539 CNS = tested on: SF-539 CNS
SK-MEL-2 melanoma = tested on: SK-MEL-2 melanoma
SK-MEL-28 melanoma = tested on: SK-MEL-28 melanoma
SK-MEL-5 melanoma = tested on: SK-MEL-5 melanoma
SK-OV-3 ovarian = tested on: SK-OV-3 ovarian
SN12C renal = tested on: SN12C renal
SNB-19 CNS = tested on: SNB-19 CNS
SNB-75 CNS = tested on: SNB-75 CNS
SR leukemia = tested on: SR leukemia
SW-620 colon = tested on: SW-620 colon
T-47D breast = tested on: T-47D breast
TK-10 renal = tested on: TK-10 renal
U251 CNS = tested on: U251 CNS
UACC-257 melanoma = tested on: UACC-257 melanoma
UACC-62 melanoma = tested on: UACC-62 melanoma
UO-31 renal = tested on: UO-31 renal

O=[N+]([O-])c1ccc(C(Br)c2ccc([N+](=O)[O-])cc2)cc1
GI50 (786-0 renal): 9.88 µM | TGI (786-0 renal): 26 µM | GI50 (A498 renal): 6.06 µM | TGI (A498 renal): 23.5 µM | GI50 (A549 NSCLC): 11.1 µM | TGI (A549 NSCLC): 26.5 µM | GI50 (ACHN renal): 11.6 µM | TGI (ACHN renal): 26.5 µM | GI50 (BT-549 breast): 15.8 µM | TGI (BT-549 breast): 30.7 µM | GI50 (CAKI-1 renal): 2.11 µM | TGI (CAKI-1 renal): 4.91 µM | GI50 (CCRF-CEM leukemia): 2.11 µM | TGI (CCRF-CEM leukemia): 5.98 µM | GI50 (COLO 205 colon): 11.1 µM | TGI (COLO 205 colon): 24 µM | GI50 (DU-145 prostate): 15.1 µM | TGI (DU-145 prostate): 28.6 µM | GI50 (EKVX NSCLC): 14 µM | TGI (EKVX NSCLC): 28.7 µM | GI50 (HCT-116 colon): 1.48 µM | TGI (HCT-116 colon): 4.06 µM | GI50 (HCT-15 colon): 1.67 µM | TGI (HCT-15 colon): 5.26 µM | GI50 (HL-60(TB) leukemia): 8.58 µM | TGI (HL-60(TB) leukemia): 25.6 µM | GI50 (HOP-62 NSCLC): 12.5 µM | TGI (HOP-62 NSCLC): 25.9 µM | GI50 (HOP-92 NSCLC): 2.01 µM | TGI (HOP-92 NSCLC): 4.99 µM | GI50 (HS 578T breast): 17.9 µM | TGI (HS 578T breast): 53.7 µM | GI50 (HT29 colon): 1.63 µM | TGI (HT29 colon): 5.2 µM | GI50 (IGROV1 ovarian): 1.37 µM | TGI (IGROV1 ovarian): 3.17 µM | GI50 (K-562 leukemia): 3.12 µM | TGI (K-562 leukemia): 10.5 µM | GI50 (KM12 colon): 5.09 µM | TGI (KM12 colon): 18.4 µM | GI50 (LOX IMVI melanoma): 1.65 µM | TGI (LOX IMVI melanoma): 3.23 µM | GI50 (M14 melanoma): 1.91 µM | TGI (M14 melanoma): 4.2 µM | GI50 (MALME-3M melanoma): 2.06 µM | TGI (MALME-3M melanoma): 5.12 µM | GI50 (MCF7 breast): 4.07 µM | TGI (MCF7 breast): 18.1 µM | GI50 (MDA-MB-231 breast): 9.54 µM | TGI (MDA-MB-231 breast): 25.2 µM | GI50 (MDA-MB-435): 3.44 µM | TGI (MDA-MB-435): 13.5 µM | GI50 (MOLT-4 leukemia): 2.56 µM | TGI (MOLT-4 leukemia): 6.15 µM | GI50 (NCI-H226 lung): 5.29 µM | TGI (NCI-H226 lung): 23.7 µM | GI50 (NCI-H23 lung): 2.12 µM | TGI (NCI-H23 lung): 7.14 µM | GI50 (NCI-H460 lung): 16.3 µM | TGI (NCI-H460 lung): 40.2 µM | GI50 (NCI/ADR-RES ovarian): 2.37 µM | TGI (NCI/ADR-RES ovarian): 6.82 µM | GI50 (OVCAR-3 ovarian): 11.7 µM | TGI (OVCAR-3 ovarian): 24.3 µM | GI50 (OVCAR-4 ovarian): 2.02 µM | TGI (OVCAR-4 ovarian): 4.85 µM | GI50 (OVCAR-5 ovarian): 17 µM | TGI (OVCAR-5 ovarian): 34.3 µM | GI50 (OVCAR-8 ovarian): 2.72 µM | TGI (OVCAR-8 ovarian): 8.4 µM | GI50 (PC-3 prostate): 3.34 µM | TGI (PC-3 prostate): 13.5 µM | GI50 (RPMI-8226 leukemia): 2.35 µM | TGI (RPMI-8226 leukemia): 6.75 µM | GI50 (RXF 393 renal): 12.9 µM | TGI (RXF 393 renal): 26.1 µM | GI50 (SF-268 CNS): 4.35 µM | TGI (SF-268 CNS): 17.7 µM | GI50 (SF-295 CNS): 13.9 µM | TGI (SF-295 CNS): 28.9 µM | GI50 (SF-539 CNS): 15.1 µM | TGI (SF-539 CNS): 31.1 µM | GI50 (SK-MEL-2 melanoma): 4 µM | TGI (SK-MEL-2 melanoma): 17.2 µM | GI50 (SK-MEL-28 melanoma): 16.6 µM | TGI (SK-MEL-28 melanoma): 30.5 µM | GI50 (SK-MEL-5 melanoma): 2.04 µM | TGI (SK-MEL-5 melanoma): 4.9 µM | GI50 (SK-OV-3 ovarian): 11 µM | TGI (SK-OV-3 ovarian): 23 µM | GI50 (SN12C renal): 3.07 µM | TGI (SN12C renal): 11 µM | GI50 (SNB-19 CNS): 15 µM | TGI (SNB-19 CNS): 33.2 µM | GI50 (SNB-75 CNS): 12.2 µM | TGI (SNB-75 CNS): 24.7 µM | GI50 (SR leukemia): 2.36 µM | TGI (SR leukemia): 6.73 µM | GI50 (SW-620 colon): 2.89 µM | TGI (SW-620 colon): 12 µM | GI50 (T-47D breast): 1.69 µM | TGI (T-47D breast): 5.13 µM | GI50 (TK-10 renal): 3.01 µM | TGI (TK-10 renal): 10.4 µM | GI50 (U251 CNS): 2.31 µM | TGI (U251 CNS): 6.16 µM | GI50 (UACC-257 melanoma): 10.2 µM | TGI (UACC-257 melanoma): 24.1 µM | GI50 (UACC-62 melanoma): 5.11 µM | TGI (UACC-62 melanoma): 22 µM | GI50 (UO-31 renal): 1.68 µM | TGI (UO-31 renal): 5.34 µM
